Structures are written as SMILES. Like-named read-outs stand apart in the source and are kept apart here.

The source of these data is patent US5629298A, “Adenosine as a positive inotrop in the compromised heart” (University of Massachusetts Medical Center, priority 1995, dated 1997).

This assay concerns cultured ventricular myocytes. Nature of the assay: cAMP content of cultured ventricular myocytes (125I-cAMP RIA). In kind it is cell-based, rat. The conditions noted are these: Rattus norvegicus, Ventricular myocyte. As to the method:
When myocytes were to be used for biochemical studies, each of the culture dishes was preincubated for 2 hours with 1 ml of MEM containing 33 μg of laminin in a 37° C. incubator gassed with 5% CO2 in room air. The laminin solution was removed prior to myocyte seeding. After seeding, the dishes were incubated for an additional 2 hours. The settling and short term culture procedures were performed to purify the myocytes so that >95% of the myocytes adhering to the dishes were rod shaped.
Cyclic AMP levels were determined in cultures of ventricular myocytes according to the following method. After the 2-hour incubation period, the MEM was aspirated and replaced with 2 ml of fresh MEM. Adenosine agonists, ISO, or adenosine antagonists were added to the medium bathing the cells at the concentrations and times indicated. The experiment was terminated by removing the medium from the dish and adding 200 μl of 1N HCl over the cultured myocyte surface. The dishes were then frozen in liquid N2 and stored at -70° C. or held on ice momentarily until extraction was initiated.
For assay, the contents of the dishes were transferred (using 1 ml of distilled/deionized H2 O) into microcentrifuge tubes. The extracts were heated for 1 hour at 57° C. and sonicated for 10 minutes. The extracts were then centrifugated at 14,000 x g for 15 minutes. The supernatant was removed, evaporated, reconstituted in 500 μl of 50 mM sodium acetate buffer and assayed for cAMP using an ^125 I-cAMP RIA kit (Amersham). The pellet was solubilized with 0.1N NaOH and protein determined. The cAMP values are reported in pmol cAMP/mg protein of the extract pellet (total cell protein). This cAMP assay procedure routinely provided recovery values in excess of 90%.

Setting [1] is: 10 min, read-out: increase in myocyte cAMP.

As a reminder, the EC50 is the concentration giving half of the maximal effect. In the case of `CCNC(=O)[C@H]1O[C@@H](n2cnc3c(N)nc(NCCc4ccc(CCC(=O)O)cc4)nc32)[C@H](O)[C@@H]1O` [CGS-21680, 2-p-(2-carboxy-ethyl)phenethyl-amino-5'-N-ethylcarboxamido-adenosine], under setting [1], the activation at 1 µM was 77% and the activation at 10 µM stood at 174%. The EC50 (10 min, read-out: EC50 for increase in myocyte cAMP) was 1150 ± 370 nM.

Regarding `CC(C)NCC(O)c1ccc(O)c(O)c1` (centres unmarked) [ISO, isoproterenol], where the note is “1 min, ISO at 0.1 μM for 1 minutes, read-out: increase in myocyte cAMP over basal”, the activation at 0.1 µM is 90%. The activation at 1 µM (1 min, ISO at 1 μM for 1 minutes, read-out: increase in myocyte cAMP over basal) is 138%.
